Assay results published in patent US11951088B2, “Fatty acid analogs and their use in the treatment of conditions related to metabolic syndrome” (Epitracker, Inc., priority 2017, dated 2024).
Like-named read-outs stand apart in the source and are kept apart here.

Experiments:
[1] = 24-hour plasma pharmacokinetics after single oral dose in rats; assay type: in vivo; settings: for bioavailability: po, 35 mg/kg
human PPAR-δ = target: T1, human PPAR-δ (Homo sapiens, UniProt Q03181); test: PathHunter NHR Protein Interaction assay, PPAR-δ agonist activity (CHO cells)
T1 sequence (Q03181 1-441): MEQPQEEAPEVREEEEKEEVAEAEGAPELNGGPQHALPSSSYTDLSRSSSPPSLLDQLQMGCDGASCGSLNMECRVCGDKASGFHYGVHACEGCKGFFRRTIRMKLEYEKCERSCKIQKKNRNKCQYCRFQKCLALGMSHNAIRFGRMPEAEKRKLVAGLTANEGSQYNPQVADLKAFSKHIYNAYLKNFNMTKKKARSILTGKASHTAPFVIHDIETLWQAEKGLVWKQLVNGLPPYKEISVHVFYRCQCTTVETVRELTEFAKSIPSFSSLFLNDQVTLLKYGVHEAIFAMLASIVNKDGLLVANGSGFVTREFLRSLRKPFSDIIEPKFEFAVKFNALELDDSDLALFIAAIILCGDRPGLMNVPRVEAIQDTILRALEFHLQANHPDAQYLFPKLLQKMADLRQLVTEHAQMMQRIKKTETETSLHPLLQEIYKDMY
Experimental: (§1) PPAR-α, PPAR-δ, and PPAR-γ agonist activities were measured using PathHunter Nuclear Hormone Receptor (NHR) Protein Interaction (Pro) assays (DiscoverX, Freemont, California). Briefly, Chinese hamster ovary (CHO) cell lines were used to monitor the activation of PPAR-α, PPAR-δ, and PPAR-γ in a homogenous, non-imaging assay format using Enzyme Fragment Complementation (EFC). The NHR Pro assay was based on detection of protein-protein interactions between activated, full length PPAR-α, PPAR-δ, and PPAR-γ proteins and a nuclear fusion protein containing Steroid Receptor Co-activator Peptide (SRCP) domains with one or more canonical LXXLL interaction motifs. PPAR-α, PPAR-δ, and PPAR-γ were tagged with the ProLink component of the EFC assay system, and the SRCP domain was fused to the enzyme acceptor component (EA) expressed in the nucleus. When bound by ligand, PPAR-α, PPAR-δ, or PPAR-γ migrated to the nucleus and recruited the SRCP domain, whereby complementation occurred, generating a unit of active β-Galactosidase (β-Gal) and production of chemiluminescent signal. […] Percentage activity was calculated using the following formula: % Activity=100%×(mean RLU of test sample−mean RLU of vehicle control)/(mean MAX control ligand−mean RLU of vehicle control).

human PPAR-γ = target: T2, human PPAR-γ (Homo sapiens, UniProt P37231); test: PathHunter NHR Protein Interaction assay, PPAR-γ agonist activity (CHO cells)
T2 sequence (P37231 1-505): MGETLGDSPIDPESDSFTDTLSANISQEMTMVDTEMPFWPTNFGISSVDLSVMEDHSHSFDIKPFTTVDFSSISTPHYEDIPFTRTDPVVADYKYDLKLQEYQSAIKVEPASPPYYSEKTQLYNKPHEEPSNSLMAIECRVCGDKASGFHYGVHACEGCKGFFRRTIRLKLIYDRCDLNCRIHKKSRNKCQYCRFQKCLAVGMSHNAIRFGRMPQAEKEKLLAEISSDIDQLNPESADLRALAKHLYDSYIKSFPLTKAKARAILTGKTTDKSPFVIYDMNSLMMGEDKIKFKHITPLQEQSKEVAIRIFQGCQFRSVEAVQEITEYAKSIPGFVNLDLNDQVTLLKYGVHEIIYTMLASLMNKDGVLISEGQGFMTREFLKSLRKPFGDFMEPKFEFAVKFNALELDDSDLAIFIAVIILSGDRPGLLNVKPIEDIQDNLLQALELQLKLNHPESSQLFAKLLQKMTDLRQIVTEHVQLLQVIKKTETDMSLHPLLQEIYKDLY
Experimental: as §1

human PPAR-α = target: T3, human PPAR-α (Homo sapiens, UniProt Q07869); test: PathHunter NHR Protein Interaction assay, PPAR-α agonist activity (CHO cells); settings: PPAR-alpha; Table 4
T3 sequence (Q07869 1-468): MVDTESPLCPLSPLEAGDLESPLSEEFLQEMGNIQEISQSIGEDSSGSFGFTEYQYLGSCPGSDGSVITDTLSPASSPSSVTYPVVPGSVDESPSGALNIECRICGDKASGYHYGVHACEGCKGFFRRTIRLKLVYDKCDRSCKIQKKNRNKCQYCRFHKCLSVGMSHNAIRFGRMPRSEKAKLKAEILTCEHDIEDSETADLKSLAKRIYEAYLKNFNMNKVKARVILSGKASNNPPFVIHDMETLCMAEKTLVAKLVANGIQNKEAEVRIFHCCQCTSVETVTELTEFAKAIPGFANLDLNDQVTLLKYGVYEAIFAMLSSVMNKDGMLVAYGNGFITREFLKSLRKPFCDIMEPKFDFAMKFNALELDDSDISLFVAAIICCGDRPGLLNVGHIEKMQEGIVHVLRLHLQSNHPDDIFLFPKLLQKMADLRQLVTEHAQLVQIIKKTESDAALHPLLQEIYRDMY
Experimental: as §1

[2] = system: New Zealand white rabbits fed a high fat diet; test: diet-induced rabbit model for metabolic syndrome-associated dyslipidemia, anemia, liver iron overload and steatohepatitis; assay type: in vivo; settings: Day 76
From the text: This study further assessed the efficacy of treating diseases associated with metabolic syndrome, including dyslipidemia, inflammation, anemia, liver iron overload and nonalcoholic steatohepatitis, using an oral odd-chain saturated fatty acid. Sixteen New Zealand white rabbits were fed a high fat diet (HFD) (4% peanut oil and 0.5% cholesterol) for 2 weeks. Eight additional rabbits were maintained on a baseline diet. Study rabbits were then divided into the following three groups of eight: baseline diet controls, HFD controls, and C15:0-treated (35 mg/kg body weight) cases. The test article was a synthetic powder stable at room temperature and purchased from Sigma-Aldrich (Products W433400 (≥99% C15:0). The test article was provided daily in the diet for 11 weeks (76 days) while continuing ad libitum access to the HFD (HFD controls and treated groups) or baseline diet (baseline diet controls). Body weight and food intake were measured weekly. Plasma clinical chemistries and red blood cell indices, as well as iron deposition and fibrosis in the liver, were assessed at Day 76. Data from the treated group were compared to the control groups using Wilcoxon rank sum analyses. […].
Table 2 provides comparisons of clinical effects from a diet-induced rabbit model for metabolic syndrome-associated dyslipidemia, inflammation, and hemolytic anemia, including a case group treated daily with oral pentadecanoic acid (C15:0) (35 mg/kg BW) for 11 weeks.
Table 3 provides comparisons of effects on liver histology in a diet-induced rabbit model for metabolic syndrome-associated liver iron overload and nonalcoholic steatohepatitis, including a case group treated daily with oral pentadecanoic acid (C15:0) (35 mg/kg BW) for 11 weeks.

[3] = system: C57BL/6J mice fed a high fat diet; test: diet-induced obese mice treated daily by gastric gavage for 12 weeks; assay type: in vivo
Experimental: Forty C57BL/6J mice were fed a high fat diet (HFD) (D12492, 60% kcals fat) for 8 weeks. Study mice were then divided into the following four groups of ten: vehicle controls, low dose C17:0-treated (5 mg/kg body weight), high-dose C17:0-treated (50 mg/kg body weight), and low-dose C15:0-treated (5 mg/kg body weight).
Table 1 provides comparisons of cardiometabolic effects in diet-induced obese mice treated daily with oral pentadecanoic acid (5 mg/kg BW), heptadecanoic acid (5 and 50 mg/kg BW) for 12 weeks compared to vehicle controls. “Results” values are based on 6 h fasted samples.

[4] = Day 84, 6 h fasted, 5 mg/kg daily oral

`CCCCCCCCCCCCCCC(=O)O` [C15:0, pentadecanoic acid] gave a Cmin ([1]; 35 mg/kg single oral dose) of 700 ng/mL, a Tlast ([1]; 35 mg/kg single oral dose) of 24 h and an AUC(0-t) ([1]; rat, 35 mg/kg single oral dose) of 46400 ng·h/mL. For the same compound, the Tmax ([1]; rat, 35 mg/kg single oral dose) was 1 h, the Cmax ([1]; rat, 35 mg/kg single oral dose, deuterated form) was 4980 ng/mL and the bioavailability ([1]; rat, 35 mg/kg single oral dose, estimate using an AUC of 15 for a 1 mg/kg IV arm, read-out: % F) was 8.83%. For the same compound, the bioavailability ([1]; rat, oral, rats, read-out: estimated plasma % F (bioavailability)) was 9%, the “PPAR-delta agonist activity (in words)” value (human PPAR-δ) was “partial PPAR delta agonist” and the EC50 (human PPAR-γ) was > 100 µM. The EC50 (human PPAR-γ; read-out: Half Maximal Effective Concentration (EC50), PPAR-γ, Table 5) was > 100 µM, the EC50 (human PPAR-α) was 11.5 µM and the “clinical effects compared to the HFD controls (in words)” value ([2]; 35 mg/kg) was “attenuated anemia, liver iron deposition, and liver fibrosis”. For the same compound, the Hematocrit ([2]; 35 mg/kg/day in HFD) was 38 ± 4%, the Hemoglobin ([2]; 35 mg/kg/day in HFD) was 14 ± 1 G/dl and the Mean cell hemoglobin ([2]; 35 mg/kg/day in HFD) was 23 ± 1 pg. The Mean cell volume ([2]; 35 mg/kg/day in HFD) was 64 ± 2 fL, the “Nucleated red blood cells” value ([2]; 35 mg/kg/day in HFD) was 8 ± 1 10^3/ul and the Platelets ([2]; 35 mg/kg/day in HFD) was 485 ± 87 10^3/ul. The “Red blood cell distribution width” value ([2]; 35 mg/kg/day in HFD) was 15 ± 1%, the Red blood cells ([2]; 35 mg/kg/day in HFD) was 6.0 ± 0.7 10^6/ul and the Cholesterol ([2]; plasma, 35 mg/kg/day in HFD) was 2516 ± 746 mg/dL. For the same compound, the Globulins ([2]; plasma, 35 mg/kg/day in HFD) was 1.3 ± 0.7 G/dl, the Lipemia ([2]; plasma, 35 mg/kg/day in HFD) was 341 ± 243 mg/dL and the Triglycerides ([2]; plasma, 35 mg/kg/day in HFD) was 235 ± 132 mg/dL. The “metabolic syndrome compared to vehicle controls (in words)” value ([3]; 12 weeks daily oral, C15:0 5 mg/kg, C17:0 5 and 50 mg/kg) was “attenuated metabolic syndrome”, the Cholesterol [3, 4] was 183 ± 25 mg/dL and the Glucose [3, 4] was 245 ± 37 mg/dL. The IL-6 [3, 4] was 19 ± 11 pg/mL, the Insulin [3, 4] was 4.9 ± 3.8 ng/mL and the LDL-C [3, 4] was 6 ± 4 mg/dL. For the same compound, the MCP-1 [3, 4] was 52 ± 25 pg/mL and the TNF-α [3, 4] was 1.6 ± 1.0 pg/mL.
